Reference: US7811819B2, “Cryopreservation of primate embryonic stem cells” (The University of Washington, priority 2005, dated 2010)

Columns and labels:
H1 hESC [1] = experiment: Toxicity of the DMSO cryoprotectant to hESC without freezing (Group 2 vs control Group 1); format: cell-based, human; settings: DMSO 10% in freezing medium, straws held 20 minutes at room temperature, not frozen; Group 1 vs. 2; cells grown three days
Procedure: (§1) hESC culture. H1 hESC from passage 51 to 57 (WiCell, Madison, Wis., USA) were cultured in Knockout™ DMEM supplemented with GlutaMAX™ (2 mM), sodium pyruvate (1.0 mM), non-essential amino acids (0.1 mM), penicillin (50 u/ml), streptomycin (50 u/ml), Knockout™ serum replacer (15%) (all from Invitrogen, Carlsbad, Calif., USA) and β-mercaptoethanol (0.1 mM; Sigma, St. Louis, Mo., USA). hESC were grown on gelatinized tissue culture plates seeded with primary mouse embryonic fibroblasts that had been exposed to 3000 Rads γ-irradiation. To passage, cells were washed once with calcium and magnesium free phosphate buffered saline (PBS; Invitrogen, Carlsbad, Calif., USA) and then exposed to 1.2 u/ml dispase (Invitrogen, Carlsbad, Calif., USA) dissolved in PBS supplemented with 10% FBS until colonies began to lift from the plate. The cell layer was washed off the plate and mechanically dispersed using a plugged 9-inch Pasteur pipette or a 5 ml pipette. At this point, cells were divided into tubes for each group. The cells were then pelleted through centrifugation at 1200 rpm for 3 minutes, washed and pelleted again in culture medium (described above). […]
(§2) Calculation of Survival. Survival was calculated as combined colony number and colony size relative to Group 1, which was set at 100% survival. The horizontal diameters of 10 colonies were measured. […]

H1 hESC [2] = experiment: Survival of hESC after slow, controlled-rate freezing and thaw (colony number and colony size relative to untreated control); format: cell-based, human; settings: sucrose on thaw (cryoprotectant removal); concentration not given
Procedure: as §1, §2

Row | Structure (SMILES) | toxicity to the hESC (H1 hESC [1]) | effect on survival following thaw (H1 hESC [2])
1 | C[S+](C)[O-] [DMSO] | does not appear toxic | 
2 | OC[C@H]1O[C@@](CO)(O[C@H]2O[C@H](CO)[C@@H](O)[C@H](O)[C@H]2O)[C@@H](O)[C@@H]1O [Sucrose] |  | harmful to survival
